The target in assay [1] is T1, wild-type Epidermal Growth Factor Receptor (EGFR) (Homo sapiens, UniProt P00533).
T1 construct: a fragment of human EGFR (amino acids R669 to A1210); made in house; host or cells: Sf9 insect cells
Description: WT-EGFR Kinase Assay (TR-FRET, 2 mM ATP). The format is biochemical. The procedure, abridged:
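GST-fused human EGFR fragment (R669-A1210) from Sf9 cells, typically 7.6 pg/μL, pre-incubated with compound 15 min at 22° C in Hepes pH 7.0 buffer with MgCl2, DTT and vanadate; biotinylated peptide substrate. After EDTA stop, phosphopeptide detected by TR-FRET (anti-phosphotyrosine Tb-cryptate/streptavidin-XL665), 665/620 nm emission ratio.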

The next assay addresses T2, full-length human CSNK1D (Homo sapiens, UniProt P48730).
T2 construct: N-terminal Glutathion-S-Transferase (GST) and full-length human CSNK1D; purchased Life Technologies PV3665; host or cells: baculovirus infected insect cells
Description: CSNK1D Assay (ADP-Glo, 1 μM ATP). The note with it: Table 3, read-out: CSNK1D IC50 [mol/l] (median). The format is biochemical. The procedure, abridged:
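Enzyme is N-terminal GST-tagged full-length human CSNK1D from baculovirus-infected insect cells (typically about 0.5 ng/μL), with a biotinylated peptide substrate and 1 μM ATP. Compound pre-incubated 15 min at 22° C in HEPES pH 7.5 buffer; ADP formed is read by ADP-Glo luminescence.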

[2] abbreviates: EGFR Wildtyp 2 mM ATP IC50 [mol/l] (median), Table 4.
The mark [3] stands for this setting: read-out: EGFR Wildtyp 2 mM ATP IC50 [mol/l] (median), Table 4.

Like-named read-outs stand apart in the source and are kept apart here.

T2 sequence (P48730 whole entry): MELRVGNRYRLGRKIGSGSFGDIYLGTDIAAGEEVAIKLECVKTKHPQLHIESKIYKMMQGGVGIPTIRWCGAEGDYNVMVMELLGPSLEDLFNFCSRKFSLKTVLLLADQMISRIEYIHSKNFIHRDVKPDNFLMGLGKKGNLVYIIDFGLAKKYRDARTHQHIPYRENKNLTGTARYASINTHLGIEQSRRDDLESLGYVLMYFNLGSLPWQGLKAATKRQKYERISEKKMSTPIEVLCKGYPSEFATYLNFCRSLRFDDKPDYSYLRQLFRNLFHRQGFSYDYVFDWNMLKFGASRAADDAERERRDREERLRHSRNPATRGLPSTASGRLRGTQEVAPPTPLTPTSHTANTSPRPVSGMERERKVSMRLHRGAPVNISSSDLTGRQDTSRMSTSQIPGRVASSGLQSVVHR
T1 sequence (P00533 669-1210): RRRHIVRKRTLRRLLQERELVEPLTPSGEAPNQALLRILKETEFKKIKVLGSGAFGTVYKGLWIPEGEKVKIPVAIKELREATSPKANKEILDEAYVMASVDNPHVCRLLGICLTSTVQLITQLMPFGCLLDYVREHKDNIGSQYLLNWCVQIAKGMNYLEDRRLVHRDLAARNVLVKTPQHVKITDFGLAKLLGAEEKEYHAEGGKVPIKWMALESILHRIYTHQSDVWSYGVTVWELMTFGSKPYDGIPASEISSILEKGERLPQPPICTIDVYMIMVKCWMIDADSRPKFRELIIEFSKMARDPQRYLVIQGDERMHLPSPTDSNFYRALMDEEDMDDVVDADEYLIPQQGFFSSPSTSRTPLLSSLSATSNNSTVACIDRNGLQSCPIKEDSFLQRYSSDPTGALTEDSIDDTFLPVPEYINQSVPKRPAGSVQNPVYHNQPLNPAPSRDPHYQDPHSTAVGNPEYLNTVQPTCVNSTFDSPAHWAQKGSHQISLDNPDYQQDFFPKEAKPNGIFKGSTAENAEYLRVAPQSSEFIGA

As to `O=C(Nc1cc(-c2[nH]c3ccc(F)nc3c2-c2ccc(F)cn2)ccn1)C(CC(F)F)c1ccc(F)cc1` (single isomer, unassigned; (+)) [Example 109, (+)-4,4-difluoro-N-{4-[5-fluoro-3-(5-fluoropyridin-2-yl)-1H-pyrrolo[3,2-b]pyridin-2-yl]pyridin-2-yl}-2-(4-fluorophenyl)butanamide], the IC50 in assay [1] (setting [2]) is more than 20 µM; at full-length human CSNK1D, 3.41 nM.

For `O=C(Nc1cc(-c2[nH]c3cccnc3c2-c2ccccn2)ccn1)C(CC(F)F)c1ccc(F)cc1` (single isomer, unassigned; (+)) [Example 11, (+)-4,4-difluoro-2-(4-fluorophenyl)-N-{4-[3-(pyridin-2-yl)-1H-pyrrolo[3,2-b]pyridin-2-yl]pyridin-2-yl}butanamide], the figures for the IC50 (in assay [1] (setting [2]); on full-length human CSNK1D) were more than 20 µM and 2.57 nM, respectively.

`O=C(Nc1cc(-c2[nH]c3c(C4CCCO4)cc(F)nc3c2-c2ccccn2)ccn1)C(CC(F)F)c1ccc(F)cc1` (single isomer, unassigned) [Example 118, (2R or S)-4,4-difluoro-N-(4-{5-fluoro-7-[(2R or S)-oxolan-2-yl]-3-(pyridin-2-yl)-1H-pyrrolo[3,2-b]pyridin-2-yl}pyridin-2-yl)-2-(4-fluorophenyl)butanamide]: the figures for the IC50 (in assay [1] (setting [2]); on full-length human CSNK1D) were more than 20 µM and 125 nM, respectively.

In the case of `O=C(Nc1cc(-c2[nH]c3cccnc3c2-c2cccc(F)n2)ccn1)C(CC(F)F)c1ccc(F)cc1` (single isomer, unassigned; (+)) [Example 27, (+)-4,4-difluoro-2-(4-fluorophenyl)-N-{4-[3-(6-fluoropyridin-2-yl)-1H-pyrrolo[3,2-b]pyridin-2-yl]pyridin-2-yl}butanamide], the IC50 in assay [1] (setting [3]) is more than 20 µM; at full-length human CSNK1D, 4.05 nM.

For the compound `Cc1ccc2[nH]c(-c3ccnc(NC(=O)C(CC(F)F)c4ccc(F)cc4)c3)c(-c3ccccn3)c2n1` (single isomer, unassigned) [Example 6, 4,4-difluoro-2-(4-fluorophenyl)-N-{4-[5-methyl-3-(pyridin-2-yl)-1H-pyrrolo[3,2-b]pyridin-2-yl]pyridin-2-yl}butanamide], the IC50 was more than 20 µM in assay [1] (setting [3]) and 89.7 nM on full-length human CSNK1D.

Take `CC(C)(O)c1cc(F)nc2c(-c3ccccn3)c(-c3ccnc(NC(=O)C(CC(F)F)c4ccc(F)cc4)c3)[nH]c12` (single isomer, unassigned) [Example 99, (2R or S)-4,4-difluoro-N-{4-[5-fluoro-7-(2-hydroxypropan-2-yl)-3-(pyridin-2-yl)-1H-pyrrolo[3,2-b]pyridin-2-yl]pyridin-2-yl}-2-(4-fluorophenyl)butanamide]: the values for the IC50 (in assay [1] (setting [2]); at full-length human CSNK1D) were more than 20 µM and 3.36 nM, respectively.

`O=C(Nc1cc(-c2[nH]c3c(CC4CC4)cc(F)nc3c2-c2ccccn2)ccn1)C(CC(F)F)c1ccc(F)cc1` (single isomer, unassigned) [Example 47, (2R or S)—N-{4-[7-(cyclopropylmethyl)-5-fluoro-3-(pyridin-2-yl)-1H-pyrrolo[3,2-b]pyridin-2-yl]pyridin-2-yl}-4,4-difluoro-2-(4-fluorophenyl)butanamide]: the results for the IC50 (in assay [1] (setting [2]); at full-length human CSNK1D) were more than 20 µM and 59 nM, respectively.

In the case of `O=C(Nc1cc(-c2[nH]c3ccc(F)nc3c2-c2ccccn2)ccn1)[C@H](CC(F)F)c1ccc(F)cc1` (single isomer, unassigned) [Example 3], the IC50 in assay [1] (setting [2]) was more than 20 µM; on full-length human CSNK1D, 20.1 nM.

In the case of `COc1cc(F)nc2c(-c3ccccn3)c(-c3ccnc(NC(=O)C(CC(F)F)c4ccc(F)cc4)c3)[nH]c12` (single isomer, unassigned; (+)) [Example 40, (+)-4,4-difluoro-N-{4-[5-fluoro-7-methoxy-3-(pyridin-2-yl)-1H-pyrrolo[3,2-b]pyridin-2-yl]pyridin-2-yl}-2-(4-fluorophenyl)butanamide], the IC50 in assay [1] (setting [2]) is more than 20 µM; on full-length human CSNK1D it was 5.57 nM.

Consider `O=C(Nc1cc(-c2[nH]c3cccnc3c2-c2ccccc2)ccn1)C(CC(F)F)c1ccc(F)cc1` (single isomer, unassigned; (-)) [Example 23, (−)-4,4-difluoro-2-(4-fluorophenyl)-N-[4-(3-phenyl-1H-pyrrolo[3,2-b]pyridin-2-yl)pyridin-2-yl]butanamide], for which the IC50 in assay [1] (setting [2]) was more than 20 µM; at full-length human CSNK1D, 12.5 nM.

For the compound `Cc1cc(F)nc2c(-c3ccccn3)c(-c3ccnc(NC(=O)C(CC(F)F)c4ccc(F)cc4)c3)[nH]c12` (single isomer, unassigned; (-)) [Example 38, (−)-4,4-difluoro-N-{4-[5-fluoro-7-methyl-3-(pyridin-2-yl)-1H-pyrrolo[3,2-b]pyridin-2-yl]pyridin-2-yl}-2-(4-fluorophenyl)butanamide], the IC50 in assay [1] (setting [2]) is more than 20 µM; at full-length human CSNK1D, 3.8 nM.

In the case of `O=C(Nc1cc(-c2[nH]c3cncnc3c2-c2ccccn2)ccn1)C(CC(F)F)c1ccc(F)cc1` (single isomer, unassigned; (+)) [Example 15, (+)-4,4-difluoro-2-(4-fluorophenyl)-N-{4-[7-(pyridin-2-yl)-5H-pyrrolo[3,2-d]pyrimidin-6-yl]pyridin-2-yl}butanamide], the IC50 in assay [1] (setting [3]) was more than 20 µM; on full-length human CSNK1D, 3.06 nM.

Regarding `O=C(Nc1cc(-c2[nH]c3cccnc3c2-c2cccc(F)n2)ccn1)C(CC(F)F)c1ccc(F)cc1` (racemic) [Example 25, 4,4-difluoro-2-(4-fluorophenyl)-N-{4-[3-(6-fluoropyridin-2-yl)-1H-pyrrolo[3,2-b]pyridin-2-yl]pyridin-2-yl}butanamide], the IC50 in assay [1] (setting [2]) is more than 20 µM; on full-length human CSNK1D it was 7.87 nM.

In the case of `O=C(Nc1cc(-c2[nH]c3c(OCC4CC4)ncnc3c2-c2ccccn2)ccn1)C(CC(F)F)c1ccc(F)cc1` (single isomer, unassigned) [Example 129, (2R or S)—N-{4-[4-(cyclopropylmethoxy)-7-(pyridin-2-yl)-5H-pyrrolo[3,2-d]pyrimidin-6-yl]pyridin-2-yl}-4,4-difluoro-2-(4-fluorophenyl)butanamide], the results for the IC50 (in assay [1] (setting [2]); at full-length human CSNK1D) were 9.5 µM and 5.94 nM, respectively.

`O=C(Nc1cc(-c2[nH]c3c(OC4CC4)cc(F)nc3c2-c2ccccn2)ccn1)C(CC(F)F)c1ccc(F)cc1` (centres unmarked) [Example 45]: the IC50 is more than 20 µM in assay [1] (setting [2]) and 40.4 nM at full-length human CSNK1D.

Turning to `O=C(Nc1cc(-c2[nH]c3c(OC[C@H]4COCCO4)cc(F)nc3c2-c2ccccn2)ccn1)C(CC(F)F)c1ccc(F)cc1` (mixture of isomers) [Example 50, (2RS)—N-{4-[7-{[(2R)-1,4-dioxan-2-yl]methoxy}-5-fluoro-3-(pyridin-2-yl)-1H-pyrrolo[3,2-b]pyridin-2-yl]pyridin-2-yl}-4,4-difluoro-2-(4-fluorophenyl)butanamide], the IC50 in assay [1] (setting [2]) is more than 20 µM; at full-length human CSNK1D, 9.03 nM.

`CC(C)(O)c1cc(F)nc2c(-c3ccccn3)c(-c3ccnc(NC(=O)C(CC(F)F)c4ccc(F)cc4)c3)[nH]c12` (single isomer, unassigned) [Example 100, (2R or S)-4,4-difluoro-N-{4-[5-fluoro-7-(2-hydroxypropan-2-yl)-3-(pyridin-2-yl)-1H-pyrrolo[3,2-b]pyridin-2-yl]pyridin-2-yl}-2-(4-fluorophenyl)butanamide]: the IC50 is more than 20 µM in assay [1] (setting [3]) and 46.3 nM at full-length human CSNK1D.

For `O=C(Nc1cc(-c2[nH]c3cccnc3c2-c2ccccn2)ccn1)C(CCO)c1ccc(F)cc1` (centres unmarked) [Example 104, 2-(4-fluorophenyl)-4-hydroxy-N-(4-(3-(pyridin-2-yl)-1H-pyrrolo[3,2-b]pyridin-2-yl)pyridin-2-yl)-butanamide], the IC50 in assay [1] (setting [2]) is more than 20 µM; on full-length human CSNK1D, 16.3 nM.

Turning to `O=C(Nc1cc(-c2[nH]c3cccnc3c2-c2cccc(F)n2)ccn1)C(CC(F)F)c1ccc(F)cc1` (single isomer, unassigned; (-)) [Example 26, (−)-4,4-difluoro-2-(4-fluorophenyl)-N-{4-[3-(6-fluoropyridin-2-yl)-1H-pyrrolo[3,2-b]pyridin-2-yl]pyridin-2-yl}butanamide], the IC50 in assay [1] (setting [2]) was more than 20 µM; on full-length human CSNK1D, 50.7 nM.

For `COc1cnc2c(-c3ccccn3)c(-c3ccnc(NC(=O)C(CC(F)F)c4ccc(F)cc4)c3)[nH]c2n1` (single isomer, unassigned) [Example 103, 4,4-difluoro-2-(4-fluorophenyl)-N-{4-[3-methoxy-7-(pyridin-2-yl)-5H-pyrrolo[2,3-b]pyrazin-6-yl]pyridin-2-yl}butanamide], the IC50 in assay [1] (setting [3]) was more than 20 µM; at full-length human CSNK1D, 4.3 nM.

As for `O=C(Nc1cc(-c2[nH]c3c(C4CCCO4)cc(F)nc3c2-c2ccccn2)ccn1)C(CC(F)F)c1ccc(F)cc1` (single isomer, unassigned) [Example 117, (2R or S)-4,4-difluoro-N-(4-{5-fluoro-7-[(2R or S)-oxolan-2-yl]-3-(pyridin-2-yl)-1H-pyrrolo[3,2-b]pyridin-2-yl}pyridin-2-yl)-2-(4-fluorophenyl)butanamide], the IC50 in assay [1] (setting [2]) was more than 20 µM; at full-length human CSNK1D, 28 nM.

Turning to `O=C(Nc1cc(-c2[nH]c3c(CC4CC4)cc(F)nc3c2-c2ccccn2)ccn1)C(CC(F)F)c1ccc(F)cc1` (racemic) [Example 46, (2RS)—N-{4-[7-(cyclopropylmethyl)-5-fluoro-3-(pyridin-2-yl)-1H-pyrrolo[3,2-b]pyridin-2-yl]pyridin-2-yl}-4,4-difluoro-2-(4-fluorophenyl)butanamide], the IC50 in assay [1] (setting [2]) is more than 20 µM; on full-length human CSNK1D, 19.2 nM.

The values above are taken from patent US12692261B2, “Substituted heterocyclic compounds and therapeutic uses thereof” (Bayer Aktiengesellschaft, priority 2020, dated 2026).
